Patent US6825217B2, “Carbinols for the treatment of neuropathic dysfunction” (Endo Pharmaceuticals, Inc., priority 2001, dated 2004)
Read-outs that look alike come from different tables or passages of the source.

Tests used:
[1] = CCI rats, cited from earlier work
[2] = sometimes fatally; U.S. Food and Drug Administration; cited from earlier work
[3] = Rat Hot Plate; format: in vivo
[4] = Mouse Tail-Flick; format: in vivo; conditions: Mus musculus; read-out: Mouse Tail-Flick ED50 (unit inferred)
[5] = Mouse antiphenylquinone writhing (PQW) test; format: in vivo; conditions: Mus musculus
Description: (§1) The anti-phenylquinone writhing (PQW) test modified from the methods of Siegmund et al. (Proc. Soc. Exp. Biol. Med. 95: 729-731, 1957) and Blumberg et al. (Proc. Exp. Biol. Med. 118: 763-767, 1965) was used to assess the relief from the simulated symptoms of neuropathic pain in mice. Male CF1 mice (Charles River Breeding Laboratories, Wilmington, Mass.), fasted for 16-22 hours and weighing 18-23 g, were injected with randomized and coded doses of test compounds, then challenged with 1.25 mg/kg i.p. phenyl-p-benzoquinone (phenylquinone) 5 minutes prior to the specified observation time. The phenylquinone solution (0.1 mg/ml in 5% aqueous ethanol) was prepared daily and stored in foil-wrapped amber bottles to limit degradation. Mice were observed 10 minutes for the presence or absence of the characteristic abdominal constriction and stretching response beginning 30 minutes after injection of the test compound. Activity was calculated as the percentage of mice failing to respond to the phenylquinone challenge dose. […] Median effective doses (ED50's) and 95% confidence limits were determined numerically by the methods of Thompson (Bacteriological Rev. 11: 115-145, 1947), and Litchfield and Wilcoxon (J. Pharmacol. Exp. Ther. 96: 99-113, 1949).

[6] = Rat Tail-Flick; format: in vivo
[7] = Formalin model; format: in vivo; conditions: rat, versus saline control
Excerpt: Formalin induces inflammatory stimulation of peripheral nerves that results in sensitization of CNS nociceptive transmission pathways. There are two phases of formalin-induced nociception: phase I—an acute nociceptive component; and phase II—a chronic nociceptive component characterized by hyperalgesia.
On the morning of formalin testing, a small metal band (0.5 g) was loosely placed around the right hind paw. The rat was placed in a cylindrical Plexiglas chamber for adaptation for a minimum of 30 minutes. Compound A, venlafaxine or a saline control was administered into the dorsal surface of the right hindpaw of the rat. The animal was then placed into the chamber of the automated formalin apparatus where movement of the formalin-injected paw was monitored and the number of paw flinches tallied by minute over the next sixty minutes. Upon completion of the test the animal was removed and euthanized.

[8] = Rat PQW; format: in vivo; conditions: Rattus norvegicus
Description: as §1

[9] = Chung model (tactile allodynia); format: in vivo, rat; conditions: rat; two hours post injection; doses 200 mg/kg and 100 mg/kg
Description: This model for neuropathic pain was performed on rats using the surgical procedure described by Kim and Chung (1992) to induce an allodynic state. Briefly, the left L-5 and L-6 spinal nerves were isolated adjacent to the vertebral column and ligated with 6-0 silk suture distal to the dorsal root ganglion under isoflurane anesthesia. This model allows for spinal cord structural reorganization and growth of low threshold mechnoreceptor fibers from the spinal cord with synaptic connections and rewiring of the dorsal horn. This leads to spontaneous firing of invading sympathetic nerves and upregulation of receptors and voltage-dependent channels; i.e. mimics the development of allodynia (nociceptive response to a previously neutral stimulus). The rats were allowed a minimum of 7-days postoperative recovery period before testing.
To assess tactile thresholds in the Chung model, rats were placed in a clear plastic, wire mesh-bottomed cage, divided into individual compartments. Animals were allowed to acclimate and then baseline thresholds were assessed prior to drug treatment. To assess the 50% mechanical threshold for paw withdrawal, von Frey hairs were applied to the plantar mid-hindpaw, avoiding the tori (footpads). The eight von Frey hairs used are designated by [log (10*force required to bend hair, mg)] and range from 0.4-15.1 grams (#'s 3.61-5.18). Each hair was pressed perpendicularly against the paw with sufficient force to cause slight bending, and held for approximately 6-8 seconds. A positive response was noted if the paw was sharply withdrawn. Flinching immediately upon removal of the hair was also considered a positive response. Absence of a response (“−”) was cause to present the next consecutive stronger stimulus; a positive response (“+”) was cause to present the next weaker stimulus. Stimuli were presented successively until either six data points were collected, or the maximum or minimum stimulus was reached. If a minimum stimulus was reached and positive responses still occurred, the threshold was assigned an arbitrary minimum value of 0.25 grams; if a maximum stimulus was presented and no response occurred, a maximum threshold value of 15 grams was assigned. If a change in response occurs, either “−” to “+” or “+” to “−”, causing a change in the direction of stimulus presentation from descending to ascending or vice-versa, four additional data points were collected subsequent to the change.

[10] = tested on: subunit of a voltage-gated calcium channel; conditions: cited from earlier work
[11] = tested on: GABA receptors; conditions: cited from earlier work
[12] = intraperitoneal, high doses of up to 600 mg/kg
[13] = intraperitoneal 10 to 75 mg/kg, at two and four hours

In the case of `CCN1CCC(c2cccc(Cl)c2)(C(C)O)CC1` (stereo not shown), the melting point is reported as 89 to 94 °C.
`CN1CCC(c2cccc(Cl)c2)(C(C)(C)O)C1` (stereo not shown) gave a melting point of 98 to 99 °C.
Molecule `CC(O)C1(c2cccc(Cl)c2)CCCN(C)CC1` (stereo not shown) has a melting point of 123 to 124 °C.
In the case of `NC(=O)OCC(COC(N)=O)c1ccccc1` [Felbamate, felbamate], the heat hyperalgesia [1, 12] is given as “completely abolished”, the hindpaw guarding [1, 12] is given as “completely abolished” and the mechanical allodynia [1, 12] is given as “completely abolished”. For the same molecule, the mechanical hyperalgesia [1, 12] was “completely abolished”, the “responses in the control hindpaw” value ([1]; intraperitoneal) was “unaffected” and the toxicity in humans [2] was “liver failure and aplastic anemia”.
Work on `COc1cccc(C2(O)CCCCC2CN(C)C)c1` (stereo not shown) [TRAMADOL, Tramadol, reference compound] yielded an ED50 ([3]; Rattus norvegicus) of 40 mg/kg, an ED50 [4] of 31.2 mg/kg and an ED50 [5] of 7.8 mg/kg.
For `COc1ccc(C(CN(C)C)C2(O)CCCCC2)cc1` (stereo not shown) [Venlafaxine, reference compound], the “Rat Tail-Flick” value [6] was “Inactive”, the “formalin test, paw flinches, phase I” value ([7]; all administered doses (200/100/50 mg per kg)) was “statistically significant effects” and the “formalin test, paw flinches, phase II” value ([7]; all administered doses) was “statistically significant effects only during phases I and IIA”. For the same molecule, the “formalin test, paw flinches, phase IIA” value ([7]; all administered doses) was “statistically significant effects”, the “formalin test, paw flinches, Phase IIB” value [7] was “No statistical significance” and the ED50 [8] was 39.2 mg/kg. For the same molecule, the “Rat Hot Plate ED50” value ([3]; rat) was “Inactive” and the “effects on tactile allodynia” value [9] was “statistically significant effects”.
For `NCC1(CC(=O)O)CCCCC1` [gabapentin], the “responses on the control side” value [1] is given as “no significant change”, the heat hyperalgesia [1, 13] is given as “suppressed” and the mechanical allodynia [1, 13] is given as “suppressed”. For the same molecule, the mechanical hyperalgesia ([1]; intraperitoneal 10 to 75 mg/kg) was “lacked effect”, the “responses at 24 hours” value ([1]; intraperitoneal, 24 hours) was “abnormal responses had returned” and the “pattern of effects after intrathecal injection” value ([1]; intrathecal to the lumbar spinal cord, 37.5 to 150 mcg/kg) was “the pattern was similar”. For the same molecule, the “binding to a subunit of a voltage-gated calcium channel” value [10] was “binds with high affinity” and the “effect on GABA receptors” value [11] was “no direct effect”.
